Paper PMC10208276, “A Very Long-acting Exatecan and Its Synergism with DNA Damage Response Inhibitors” (Cancer Research Communications, 2023)
“Also recorded” adds a separate entry of the source. Read-outs that look alike come from different tables or passages of the source.

How the values were obtained:
tumor cells = system: tumor cells; parameters: method as in PMID 12234607; conditions: cited from earlier work
[1] = cited from earlier work
drug-efflux pumps = conditions: cited from earlier work
[2] = system: BRCA1-deficient MX-1 TNBC xenografts; parameters: method as in PMID 9685056; conditions: total dose of 25 and 75 mg (57 and 170 μmol)/kg, four times at 4-day intervals, at 28 days; cited from earlier work
[3] = system: BRCA1-deficient MX-1 TNBC xenografts; test: Antitumor activity of PEG-Exa in the MX-1 murine xenograft, alone and combined with TLZ or VX970; format: in vivo, female scid mice
Description: Animals were housed at Murigenics.
To assess the interaction of the drug combination, we used an additivity index determined as TGcalc/TGobsd where […] and TGcalc is the product of TGobsd values of the individual drugs. Here, an index <1 indicates infra-additive, an index of 1 indicates additivity and an index >1 indicates a supra-additive or synergistic interaction.
We measured the effects of a combination of PEG-Exa with the PARPi TLZ and the ATRi VX970 on growth of MX-1 xenografts. […] To assess the interaction of a drug combination, we used an additivity index ([28]) determined as TGcalc/TGobsd where TGcalc is the product of TGobsd values of the individual drugs and TGobsd is the observed tumor growth in the presence of both drug. Here, an index <1 indicates infra-additive, an index of 1 indicates additivity and an index >1 indicates a supra-additive or synergistic interaction.

[4] = system: patient-derived triple-negative breast cancer (TNBC) xenografts; parameters: method as in PMID 32075943; conditions: cited from earlier work
[5] = system: relapsed small cell lung cancer; parameters: method as in PMID 33848478; conditions: combination of topotecan with the ATRi VX-970, 5-day interval of a 21-day cycle; cited from earlier work
[6] = VX970 64 μmol/kg PO, 4 consecutive days a week, alone
[7] = single intraperitoneal doses of 10 and 15 μmol/kg

CC[C@@]1(O)C(=O)OCc2c1cc1n(c2=O)Cc2c-1nc1cc(F)c(C)c3c1c2[C@@H](N)CC3 [Exa, exatecan]
increase of inhibitory potency upon prolonged exposure (tumor cells): about 80 fold
t1/2 ([1]; in humans): approximately 10 hours
substrate for drug-efflux pumps (drug-efflux pumps): does not appear to be a substrate
effect on MX-1 TNBC xenografts [2]: regression

CCc1c2c(nc3ccc(O)cc13)-c1cc3c(c(=O)n1C2)COC(=O)[C@]3(O)CC [SN-38]
apparent t1/2 ([1]; SN-38 formed from CPT-11): approximately 12 hours

Cn1ncnc1[C@H]1c2n[nH]c(=O)c3cc(F)cc(c23)N[C@@H]1c1ccc(F)cc1 [TLZ, talazoparib]
TGobsd ([3]; 0.4 μmol (0.15 mg)/kg orally every day, Fig. 4A): 0.71

CNCc1ccc(-c2cc(-c3nc(-c4ccc(S(=O)(=O)C(C)C)cc4)cnc3N)on2)cc1 [VX970]
AUC of median MX-1 Tumor volume ([3]; VX970 16 μmol/kg alone): 0.98 Fraction of vehicle control
AUC of median MX-1 Tumor volume ([3]; VX970 32 μmol/kg alone): 0.96 Fraction of vehicle control
TGI [3, 6]: 0
TGobsd, AUC of median MX-1 Tumor volume [3, 6]: 1.04 Fraction of vehicle control
effect on growth of MX-1 xenografts ([3]; VX970 alone, 64 μmol/kg for 4 consecutive days a week): do not affect tumor growth; also recorded: no effect

CCc1c2c(nc3ccc(OC(=O)N4CCC(N5CCCCC5)CC4)cc13)-c1cc3c(c(=O)n1C2)COC(=O)[C@]3(O)CC [irinotecan]
responsive xenografts ([4]; xenografts containing both biomarkers): 100%
response rate ([4]; xenografts with BRCAness): 50%
response rate ([4]; xenografts with high SLFN11): 75%

CC[C@@]1(O)C(=O)OCc2c1cc1n(c2=O)Cc2cc3c(CN(C)C)c(O)ccc3nc2-1 [topotecan]
ORR [5]: 36%

PEG40kDa-[exatecan]4 (Mod = 4-Cl-C6H4-SO2-) [3A]
potency in growth suppression relative to PLX038A (PEG-SN-38) ([3]; […] PEG-Exa nearly identical to 15 μmol/kg PLX038A): approximately 6 fold
dose lower than dose of free Exa required to suppress MX-1 xenografts ([3]; single 10 μmol/kg versus total 57 μmol/kg free Exa (ref 26)): 6 fold
dose lower than dose of free Exa required to suppress MX-1 xenografts ([3]; single 10 μmol/kg versus total 170 μmol/kg free Exa (ref 26)): 18 fold
duration of tumor growth suppression ([3]; single dose of 10 μmol/kg): over 40 days
tumor growth of MX-1 xenografts ([3]; single dose of 10 μmol/kg): complete suppression of tumor growth
duration of complete growth inhibition [3, 7]: > 48 days
growth of tumors [3, 7]: complete growth inhibition
